The values that follow come from patent US20040241152A1, “Methods for inducing an immune response with an elevated th1/th2 ratio, by intracellular induction of nfkappab” (priority 2001, published 2004).

The chains are these.
B1: LFA-3: costimulatory molecule incorporated into DNA vaccines (protein, UniProt P19256 29-250, looked up)
Lymphocyte …: FSQQIYGVVYGNVTFHVPSNVPLKEVLWKKQKDKVAELENSEFRAFSSFKNRVYLDTVSGSLTIYNLTSSDEDEYEMESPNITDTMKFFLYVLESLPSPTLTCALTNGSIEVQCMIPEHYNSHRGLIMYSWDCPMEQCKRNSTSIYFKMENDLPQKIQCTLSNPLFNTTSSIILTTCIPSSGHSRHRYALIPIPLAVITTCIVLYMNGILKCDRKPDRTNSN
B2: IL-7: cytokine incorporated into DNA vaccines (protein, UniProt P13232 26-177, looked up)
Interleukin-7: DCDIEGKDGKQYESVLMVSIDQLLDSMKEIGSNCLNNEFNFFKRHICDANKEGMFLFRAARKLRQFLKMNSTGDFDLHLLKVSEGTTILLNCTGQVKGRKPAALGEAQPTKSLEENKSLKEQKKLNDLCFLKRLLQEIKTCWNKILMGTKEH
B3: CD86: costimulatory molecule incorporated into DNA vaccines (protein, UniProt P42081 24-329, looked up)
T-lymphocyte activation …: APLKIQAYFNETADLPCQFANSQNQSLSELVVFWQDQENLVLNEVYLGKEKFDSVHSKYMGRTSFDSDSWTLRLHNLQIKDKGLYQCIIHHKKPTGMIRIHQMNSELSVLANFSQPEIVPISNITENVYINLTCSSIHGYPEPKKMSVLLRTKNSTIEYDGVMQKSQDNVTELYDVSISLSVSFPDVTSNMTIFCILETDKTRLLSSPFSIELEDPQPPPDHIPWITAVLPTVIICVMVFCLILWKWKKKKRPRNSYKCGTNTMEREESEQTKKREKIHIPERSDEAQRVFKSSKTSSCDKSDTCF
B4: CD54: costimulatory molecule incorporated into DNA vaccines (protein, UniProt P05362 28-532, looked up)
Intercellular adhesion …: QTSVSPSKVILPRGGSVLVTCSTSCDQPKLLGIETPLPKKELLLPGNNRKVYELSNVQEDSQPMCYSNCPDGQSTAKTFLTVYWTPERVELAPLPSWQPVGKNLTLRCQVEGGAPRANLTVVLLRGEKELKREPAVGEPAEVTTTVLVRRDHHGANFSCRTELDLRPQGLELFENTSAPYQLQTFVLPATPPQLVSPRVLEVDTQGTVVCSLDGLFPVSEAQVHLALGDQRLNPTVTYGNDSFSAKASVSVTAEDEGTQRLTCAVILGNQSQETLQTVTIYSFPAPNVILTKPEVSEGTEVTVKCEAHPRAKVTLNGVPAQPLGPRAQLLLKATPEDNGRSFSCSATLEVAGQLIHKNQTRELRVLYGPRLDERDCPGNWTWPENSQQTPMCQAWGNPLPELKCLKDGTFPLPIGESVTVTRDLEGTYLCRARSTQGEVTRKVTVNVLSPRYEIVIITVVAAAVIMGTAGLSTYLYNRQRKIKKYRLQQAQKGTPMKPNTQATPP
B5: CD80: costimulatory molecule incorporated into DNA vaccines (protein, UniProt P33681 35-288, looked up)
T-lymphocyte activation …: VIHVTKEVKEVATLSCGHNVSVEELAQTRIYWQKEKKMVLTMMSGDMNIWPEYKNRTIFDITNNLSIVILALRPSDEGTYECVVLKYEKDAFKREHLAEVTLSVKADFPTPSISDFEIPTSNIRRIICSTSGGFPEPHLSWLENGEELNAINTTVSQDPETELYAVSSKLDFNMTTNHSFMCLIKYGHLRVNQTFNWNTTKQEHFPDNLLPSWAITLISVNGIFVICCLTYCFAPRCRERRRNERLRRESVRPV
B6: CD40L: costimulatory molecule incorporated into DNA vaccines (protein, UniProt P29965 113-261, looked up)
CD40 ligand, soluble form: MQKGDQNPQIAAHVISEASSKTTSVLQWAEKGYYTMSNNLVTLENGKQLTVKRQGLYYIYAQVTFCSNREASSQAPFIASLCLKSPGRFERILLRAANTHSSAKPCGQQSIHLGGVFELQPGASVFVNVTDPSQVSHGTGFTSFGLLKL

The first assay has as its system NF-κB. As to the kind of experiment: Preliminary work: NF-κB induction and APC/DC function. Type of assay: cell-based.
Conditions: not given
Consider MEKK1: kinase named as NF-κB inducer, for which the “induction of NF-κB and enhancement of APC/DC function” value was “can induce NF-κB and enhance APC such as DC function”.

Another assay concerns mice.
Assay: not given
As to conditions: gene incorporated into allergen DNA vector; cited from earlier work.
Turning to “IL-18: cytokine (gene) incorporated into DNA vaccines”, the airway hyperresponsiveness entry is given as “successfully reverse airway hyperresponsiveness”.

The test system of another assay is CD14+ peripheral blood monocytes cultured to DC. Briefly: Maturation of monocyte-derived dendritic cells to CD83+ cells. Type of assay: cell-based. As to conditions: 15 ng/ml, within 1 day. Here is the method: CD14^+ peripheral blood monocytes are adhered to tissue culture flasks and cultured in the presence of 1% AB serum, GM-CSF (400 ng/ml) and IL-4 (400 IU/ml) for 7 days. This yields cells with the morphology of DC and a mean of 49% with the CD1a^+ marker which is indicative of the immature form of the DC capable of taking up and presenting antigen. These cells are then matured to CD83^+ cells by the addition of TNFα (15 ng/ml), which enables the DC to present antigen to cytotoxic T-cells. 7% of the cells become CD83^+ within 1 day, but 3 days at least are required for maximum effect. It is possible that monocyte conditioned medium could replace the 1% AB serum but this is probably not desirable.
For the molecule TNFα, the “cells becoming CD83+” value was determined as 7%.

System in another assay: not given
Assay: not given
As to conditions: molecule incorporated into DNA vaccine; cited from earlier work.
Take “IL-18: cytokine (gene) incorporated into DNA vaccines”: the Antibody result is listed as “↑IgG”, the CTL result is “↑CTL” and the Cellular response entry is “↑proliferation”.

“IFNγ: cytokine incorporated into DNA vaccines”: the CTL entry is “↑CTL”.

Consider “GM-CSF: cytokine incorporated into DNA vaccines”, for which the CTL entry is “↑CTL”. TGF-β: the Antibody entry is “↑IgG1”. As to “IL-15: cytokine incorporated into DNA vaccines”, the Antibody result is reported as “IgG?”, the CTL entry was “↑CTL” and the Cellular response entry was “±↑proliferation”. On to “CTLA4: costimulatory molecule incorporated into DNA vaccines”, for which the Cellular response entry is given as “↑proliferation”.

Turning to “IL-5: cytokine incorporated into DNA vaccines”, the Antibody entry is on record as “↑IgG”.

Regarding B1, the CTL result is given as “↑CTL”. Turning to B2, the Cellular response entry is given as “↑IFNγ”.

B3: the CTL result is “↑CTL”. As for B4, the CTL entry is “↑CTL”. Turning to B5, the CTL entry is “↑CTL”.

As to B6, the CTL entry is “↑CTL” and the Cellular response entry was “↑IFNγ”.
